{"source": "patent US6953671B2", "about": "“Plasma phospholipid transfer protein (PLTP) deficiency represents an anti-atherogenic state and PLTP inhibitor has anti-atherosclerosis action” (The Trustees of Columbia University in the City of New York, priority 2001, dated 2005)", "key": {"[1]": {"test_system": "hepatocytes from apoBTg/PLTP0 and apoBTg mice", "assay": "apoB in cell lysates of radiolabeled primary hepatocytes with or without ALLN", "format": "cell-based, mouse", "conditions": "40 μg/ml ALLN, 30 min labeling; especially PLTP deficient cells", "description": "(§1) Primary hepatocyte culture, immunoprecipitation and analysis of apoB or albumin from culture medium or cel lysate were performed as described previously^18. A, pulse change experiment, apoB in the cell media; B, pulse chase experiment, apoB in the cell lysate; C, determination of apoB secretion rate in the presence and absence of the proteoscflal inhibitor ALLN. Hepatocytes from apoBTg/PLTP0 and apoBTg mice were radiolabeled continuously with ^35Smethionine/cystein with or without 40 μg/ml ALLN fcr 30 mm. Cells ware lysed and lysates immunoprecipitated with apoB antibody. Samples were separated on SDS PAGE. D, determination of apoB secretion rate in the presence and absence of heparin. Hepatocytes from apoBTG/PLTP0 and apoBTg mice were radiolabeled continuously with ^35Smethionine/cystein with or without 10 mg/ml heparin for 3 hr. […]\n(§2) Immunoprecipitation and analysis of apoB from culture medium or cell lysate: The primary hepatocytes were allowed to attach to dishes for 90 minutes. […] At each chase time point (30 minutes, 1 hour and 2 hours), medium apoB and cell lysate apoB were immunoprecipitated by apoB antibody together with protein A/G agarose, the precipitates were size-fractionated on a 4% SDS PAGE gel, the gel was dried, and the incorporation of ^35S into apoB48 and apoB100 was assessed with a Fuji Bio-Imaging Analyzer (Fuji Medical Systems, Stamford, Conn.)."}, "[2]": {"molecular_target": "plasma phospholipid transfer protein (PLTP) (UniProt P55065)", "assay": "PLTP inhibition assay (radiolabeled phospholipid transfer from vesicles to HDL by plasma)", "format": "biochemical", "conditions": "3 μl plasma, 0-50 μM compound, 400 μl assay", "description": "PLTP activity assays: Egg phosphatidylcholine (10 μmol) containing 10 nmol of [3H]PC (L-a-dipalmitoyl-[2-palmitoyl-9,10-3H(N)]-phosphatidylcholine) was dried under a stream of nitrogen, resuspended in 1 ml of a solution of 10 mM Tris, 150 mM NaCl, 1 mM ethylenediaminetetraacetic acid (EDTA) (pH 7.4), and then probe-sonicated and centrifuged. Transfer of radiolabeled phospholipid was measured by incubating 3 μl of plasma with radiolabeled phospholipid vesicles (125 nmol PC) and HDL (250 μg protein) in a final volume of 400 μl at 37° C. for 1 hour.\nThe following compound, which is a known cholesteryl ester transfer protein (CETP) inhibitor (compound No. 3 in Okamoto et al.^38) was dissolved in dimethlysulfonyl oxide (DMSO) (stock solution 2 mM): [drawing 1] A final volume of 400 μl assay system was prepared containing phosphatidylcholine, HDL, 3 μl of plasma, and 0-50 μM of the compound. Vesicles were subsequently precipitated by the addition of 300 μl of a solution of 500 mM NaCl, 215 mM MnCl2, 445 U/ml heparin, and the radioactivity of a 500-μl aliquot of the supernatant was measured."}, "[3]": {"test_system": "hepatocytes from apoBTg/PLTP0 and apoBTg mice", "assay": "apoB/BLp accumulation in media of primary hepatocytes with or without heparin", "format": "cell-based, mouse", "conditions": "10 mg/ml heparin, 3 hr", "description": "as §1, §2"}}, "note": "Where a SMILES comes first, the peptide text is derived from it. [ ]: non-standard residue; d: D form. Nle = CCCC[C@H](N)C(=O)O"}
{"compound": "CCCC[C@@H](C=O)NC(=O)[C@H](CC(C)C)NC(=O)[C@H](CC(C)C)NC(C)=O", "note": "[ALLN, N-acetyl-leu-leu-norleu-AL] (Ac-Leu-Leu-[Nle]-aldehyde)", "values": [{"measurement": "levels of apoB within cells", "setting": "[1]", "value": "increased levels of apoB within cells"}]}
{"compound": "CC(C)(C)C(=O)Nc1ccccc1SSc1ccccc1NC(=O)C(C)(C)C", "note": "[compound #3]", "values": [{"measurement": "Ki", "setting": "[2]", "value": 15, "unit": "µM"}]}
{"compound": "heparin", "values": [{"measurement": "accumulation of BLp in media", "setting": "[3]; PLTP deficient hepatocytes", "value": "failed to increase BLp accumulation"}, {"measurement": "accumulation of BLp in media", "setting": "[3]; hepatocytes from apoB transgenic mice", "value": "increased the accumulation of BLp in media"}]}
